In ChEMBL document CHEMBL5321285 (J Med Chem, 2023):
Calls of active or inactive are those of the source. The rule behind the calls is not given here.

Assays:
[1] = molecular target: Voltage-gated inwardly rectifying potassium channel KCNH2 (Homo sapiens, UniProt Q12809); assay: Inhibition of hERG expressed in CHO cells at holding potential of -80 mV measured for 15 seconds by whole cell patch clamp assay; format: toxicity, cell-based
[2] = molecular target: T1, Sigma intracellular receptor 2 (Homo sapiens, UniProt Q5BJF2); assay: Displacement of [3H]-1,3-di-O-tolylguanidine from human sigma 2 receptor/TMEM97 transfected in sigma 1 receptor knockout HEK293 cell membranes assessed as inhibition constant measured after 120 mins by microbeta scintillation counting analysis; design: species or system Cell membrane
T1 sequence (Q5BJF2 whole entry): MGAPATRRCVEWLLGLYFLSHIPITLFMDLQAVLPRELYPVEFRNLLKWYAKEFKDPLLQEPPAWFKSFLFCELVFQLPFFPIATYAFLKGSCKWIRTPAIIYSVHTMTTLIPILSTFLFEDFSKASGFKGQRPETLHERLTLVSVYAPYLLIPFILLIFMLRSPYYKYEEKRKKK

[3] = Metabolic stability in rat liver microsome assessed as parent compound remaining at 1 uM measured after 1 hr in presence of NADPH regenerating system by UPLC-MS/MS analysis; format: ADME; settings: liver microsomes, read-out: Stability
[4] = Metabolic stability in mouse liver microsome assessed as parent compound remaining at 1 uM measured after 1 hr in presence of NADPH regenerating system by UPLC-MS/MS analysis; format: ADME; settings: liver microsomes, read-out: Stability
[5] = molecular target: T2, Sigma non-opioid intracellular receptor 1 (Homo sapiens, UniProt Q99720); assay: Displacement of [3H]-(+)-pentazocine from human sigma1 receptor transfected in HEK293 cell membranes assessed as inhibition constant incubated for 120 mins in presence of haloperidol by microbeta scintillation counter analysis; design: species or system Cell membrane
T2 sequence (Q99720 whole entry): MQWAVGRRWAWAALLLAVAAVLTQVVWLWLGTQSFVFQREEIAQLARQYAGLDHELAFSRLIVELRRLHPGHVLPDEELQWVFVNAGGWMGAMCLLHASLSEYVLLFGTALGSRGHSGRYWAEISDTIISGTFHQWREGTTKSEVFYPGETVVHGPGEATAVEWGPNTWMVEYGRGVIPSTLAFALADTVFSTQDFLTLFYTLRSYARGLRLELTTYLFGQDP

[6] = Metabolic stability in human liver microsome assessed as parent compound remaining at 1 uM measured after 1 hr in presence of NADPH regenerating system by UPLC-MS/MS analysis; format: ADME; settings: liver microsomes, read-out: Stability
Homo sapiens = species on record: Homo sapiens; assay: Selectivity ratio of Ki for displacement of [3H]-(+)-pentazocine from human sigma1 receptor transfected in HEK293 cell membranes assessed as inhibition constant to Ki for displacement of [3H]-1,3-di-O-tolylguanidine from human sigma 2 receptor/TMEM97 transfected in sigma 1 receptor knockout HEK293 cell membranes assessed as inhibition constant
[7] = molecular target: T3, Sigma intracellular receptor 2 (Rattus norvegicus, UniProt Q5U3Y7); assay: Displacement of [3H]di-o-tolylguanidine from rat liver membrane sigma 2 assessed as inhibition constant incubated for 120 mins; format: cell membranes
T3 sequence (Q5U3Y7 whole entry): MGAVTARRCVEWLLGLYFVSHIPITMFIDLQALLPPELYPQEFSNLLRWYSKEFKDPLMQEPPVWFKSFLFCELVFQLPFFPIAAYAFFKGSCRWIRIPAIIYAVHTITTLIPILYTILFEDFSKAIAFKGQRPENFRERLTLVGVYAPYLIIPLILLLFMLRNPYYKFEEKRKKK

[8] = molecular target: Sigma non-opioid intracellular receptor 1 (Rattus norvegicus, UniProt Q9R0C9); assay: Displacement of [3H](+)-pentazocine from rat liver membranes sigma 1 receptor assessed as inhibition constant incubated for 120 mins; format: cell membranes, Membrane
Chain of Sigma non-opioid intracellular receptor 1 (Rattus norvegicus, UniProt Q9R0C9) (Q9R0C9 whole entry): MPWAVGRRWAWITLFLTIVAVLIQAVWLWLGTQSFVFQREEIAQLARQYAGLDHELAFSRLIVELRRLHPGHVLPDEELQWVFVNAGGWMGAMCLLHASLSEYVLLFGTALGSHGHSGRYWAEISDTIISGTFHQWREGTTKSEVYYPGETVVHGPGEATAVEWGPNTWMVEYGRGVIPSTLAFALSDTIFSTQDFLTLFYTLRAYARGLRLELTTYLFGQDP

[9] = molecular target: T1, Sigma intracellular receptor 2; assay: Binding affinity to sigma2 receptor (unknown origin) assessed as inhibition constant
[10] = molecular target: T2, Sigma non-opioid intracellular receptor 1; assay: Binding affinity to sigma1 receptor (unknown origin) assessed as inhibition constant
[11] = Binding affinity to sigma1 receptor (unknown origin) assessed as inhibition constant
Neuron = assay: Neuroprotective activity against MPP+ induced rat neurons at 10 uM pretreated with compond for 1 hr followed by MPP+ addition and measured after 48 hrs; format: functional, cell-based; settings: time 49.0 hrs
[12] = molecular target: Sigma non-opioid intracellular receptor 1 (Cavia porcellus, UniProt Q60492)
Chain of Sigma non-opioid intracellular receptor 1 (Cavia porcellus, UniProt Q60492) (Q60492 whole entry): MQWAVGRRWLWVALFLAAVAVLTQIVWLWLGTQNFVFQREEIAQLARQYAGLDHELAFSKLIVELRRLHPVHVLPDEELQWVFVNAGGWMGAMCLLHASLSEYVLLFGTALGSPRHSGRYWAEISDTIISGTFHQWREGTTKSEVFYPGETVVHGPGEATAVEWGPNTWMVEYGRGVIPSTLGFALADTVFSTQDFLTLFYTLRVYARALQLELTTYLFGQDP
Description: Displacement of [3H](+)-pentazocine from sigma 1 receptor in guinea pig brain membranes assessed as inhibition constant incubated for 120 mins in presence of haloperidol

[13] = molecular target: T3, Sigma intracellular receptor 2; assay: Displacement of [3H]di-o-tolylguanidine from rat liver membrane sigma 2 receptor assessed as inhibition constant in presence of haloperidol; format: cell membranes

Chain of Voltage-gated inwardly rectifying potassium channel KCNH2 (Q12809 whole entry): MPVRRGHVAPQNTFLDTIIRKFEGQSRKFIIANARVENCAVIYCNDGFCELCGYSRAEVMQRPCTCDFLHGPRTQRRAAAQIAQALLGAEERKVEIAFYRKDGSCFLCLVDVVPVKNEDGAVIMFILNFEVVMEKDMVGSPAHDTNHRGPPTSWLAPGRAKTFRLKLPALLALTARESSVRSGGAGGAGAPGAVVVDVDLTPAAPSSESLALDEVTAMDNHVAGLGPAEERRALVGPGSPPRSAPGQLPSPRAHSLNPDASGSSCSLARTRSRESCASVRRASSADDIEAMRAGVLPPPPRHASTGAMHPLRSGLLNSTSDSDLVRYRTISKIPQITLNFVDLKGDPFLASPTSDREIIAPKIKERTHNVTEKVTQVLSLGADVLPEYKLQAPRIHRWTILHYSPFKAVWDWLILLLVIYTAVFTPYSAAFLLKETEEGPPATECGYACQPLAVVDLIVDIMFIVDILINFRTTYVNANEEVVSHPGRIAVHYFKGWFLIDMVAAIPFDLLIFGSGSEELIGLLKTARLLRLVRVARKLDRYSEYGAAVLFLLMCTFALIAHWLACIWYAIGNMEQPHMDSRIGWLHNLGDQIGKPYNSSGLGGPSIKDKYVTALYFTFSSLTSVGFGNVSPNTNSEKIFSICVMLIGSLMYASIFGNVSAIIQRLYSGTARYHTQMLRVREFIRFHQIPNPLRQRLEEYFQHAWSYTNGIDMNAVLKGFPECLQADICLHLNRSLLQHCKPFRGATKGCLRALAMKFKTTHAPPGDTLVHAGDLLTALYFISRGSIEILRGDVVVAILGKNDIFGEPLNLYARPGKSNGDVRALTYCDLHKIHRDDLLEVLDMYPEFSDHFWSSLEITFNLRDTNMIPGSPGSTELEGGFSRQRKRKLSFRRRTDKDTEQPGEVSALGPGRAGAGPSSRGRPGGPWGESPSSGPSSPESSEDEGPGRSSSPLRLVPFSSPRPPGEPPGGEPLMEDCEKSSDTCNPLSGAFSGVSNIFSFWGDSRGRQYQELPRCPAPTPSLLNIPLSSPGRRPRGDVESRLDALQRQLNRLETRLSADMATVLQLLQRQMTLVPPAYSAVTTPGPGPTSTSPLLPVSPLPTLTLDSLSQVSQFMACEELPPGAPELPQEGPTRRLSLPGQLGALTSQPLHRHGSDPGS

SMILES | IC50 [1] [nM] | Ki [2] [nM] | remaining at 1 h, 1 µM [3] [%] | remaining at 1 h, 1 µM [4] [%] | Ki [5] [nM] | remaining at 1 h, 1 µM [6] [%] | Ratio Ki (Homo sapiens) | other results
CCc1ncc(-c2cc(C)no2)c(C2CCN(CCC(=O)N3CCOCC3)CC2)n1 | 4500 | 62 | 95 | 94 | > 1000 | 86 | – | –
CCc1ncc(-c2cc(C)no2)c([C@H]2CCCN(CC(=O)N3CCOCC3)C2)n1 | – | 788 | – | – | > 10000 | – | – | –
CCc1ncc(-c2cc(C)no2)c(C2CCN(CC(=O)N3CCCCC3)CC2)n1 | 8700 | 4 | 101 | 59 | 882 | 58 | 220 | –
CCc1ncc(-c2cc(C)no2)c([C@@H]2CCCN(CC(=O)N3CCOCC3)C2)n1 | – | 164 | – | – | > 10000 | – | – | –
CC(=O)c1ccc2c(c1)oc(=O)n2CCCCN1CCN(c2ccc(F)cc2N)CC1 | – | – | – | – | – | – | – | Ki [7]: 3.5 nM; Ki [8]: 87 nM
CCc1ncc(-c2nccn2C)c(C2CCN(CC(=O)N3CCOCC3)CC2)n1 | – | 951 | – | – | > 10000 | – | > 10 | –
CCc1ncc(-c2cc(C)no2)c(C2CCN(CC(=O)N3CCCN(C)CC3)CC2)n1 | > 10000 | 98 | 97 | 83 | > 1000 | 85 | > 10 | –
CCc1ncc(-c2ccccn2)c(C2CCN(CC(=O)N3CCOCC3)CC2)n1 | – | 319 | – | – | > 1000 | – | > 3 | –
Cc1cc(-c2cnc(C)nc2C2CCN(CC(=O)N3CCOCC3)CC2)on1 | > 10000 | 59 | 100 | 87 | 8270 | 104 | 140 | –
CCn1ncc(-c2cc(C)no2)c1C1CCN(CC(=O)N2CCOCC2)CC1 | – | > 1000 | – | – | > 1000 | – | – | –
COc1cc2c(cc1OC)CN(CCCCn1c(=O)n(C)c3ccccc31)CC2 | – | – | – | – | – | – | – | Ki [9]: 0.43 nM; Ki [10]: 560 nM
CC(C)(C)Oc1cc(CCC(C)(C)N2Cc3ccc(S(C)(=O)=O)cc3C2)ccc1O | – | 5 | 37 | 62 | 23 | 60 | 4.6 | Ki [9]: 8 nM; Ki [11]: 63 nM; Activity (Neuron): Active
CCc1ncc(-c2ccncc2)c(C2CCN(CC(=O)N3CCOCC3)CC2)n1 | – | 727 | – | – | 807 | – | 1.1 | –
CCc1ncc(-c2cc(C)no2)c(C2CCN(CC(=O)N3CCCOCC3)CC2)n1 | > 10000 | 5 | 84 | 69 | > 1000 | 77 | > 200 | –
CCc1ncc(-c2cc(C)no2)c(C2CCCN(CC(=O)N3CCOCC3)CC2)n1 (stereo not given) | – | 131 | – | – | 237 | – | – | –
O=C(CN1CCC(CN2Cc3ccccc3C2=O)CC1)c1ccc(F)cc1 [ROLUPERIDONE] | – | – | – | – | – | – | – | Ki [10]: ≥ 1000 nM
Cc1cc(-c2cnc(C3CC3)nc2C2CCN(CC(=O)N3CCOCC3)CC2)on1 | 4200 | 1 | 84 | 97 | 789 | 86 | 789 | –
CCc1ncc(-c2cc(C)no2)c(C2CCN(CC(=O)N3CCC4(CCOC4)CC3)CC2)n1 | > 10000 | 1 | 92 | 88 | 2150 | 82 | 2150 | –
Cc1cc(-c2cnc(C(F)(F)F)nc2C2CCN(CC(=O)N3CCOCC3)CC2)on1 | > 10000 | 6 | 71 | 77 | > 1000 | 78 | > 166 | –
CCc1ncc(-c2cc(C)no2)c(C2CCN(CCN3CCOCC3)CC2)n1 | > 10000 | 38 | 67 | 56 | 150 | 75 | – | –
CCn1cc(-c2cc(C)no2)c(C2CCN(CC(=O)N3CCOCC3)CC2)n1 | – | 496 | – | – | > 1000 | – | – | –
CCc1ncc(-c2cc(C)no2)c(C2CCN(CC(=O)N3CCOCC3)C2)n1 (stereo not given) | – | > 1000 | – | – | > 1000 | – | – | –
OCCCN1CCCC2CC1c1cc(-c3ccc(C(F)(F)F)cc3)ccc12 (stereo not given) | – | – | – | – | – | – | – | Ki [9]: 46 nM; Ki [10]: 1280 nM
CCCc1ncc(-c2cc(C)no2)c(C2CCN(CC(=O)N3CCOCC3)CC2)n1 | 5400 | 61 | 90 | 89 | > 1000 | 89 | > 16 | –
Cc1cc(-c2cnc(C)nc2C2CCN(C(=O)CN3CCOCC3)CC2)on1 | – | > 1000 | – | – | > 1000 | – | – | –
CCc1ncc(-c2cccc(C)n2)c(C2CCN(CC(=O)N3CCOCC3)CC2)n1 | – | 116 | 96 | 76 | > 1000 | 83 | > 8.6 | –
Cc1cc(-c2cncnc2C2CCN(CC(=O)N3CCOCC3)CC2)on1 | – | 457 | – | – | > 1000 | – | > 2 | –
Cc1cc(-c2cnc(C(C)C)nc2C2CCN(CC(=O)N3CCOCC3)CC2)on1 | 3600 | 47 | 81 | 65 | > 1000 | 80 | > 21 | –
CN1CC[C@]2(c3cccc(O)c3)CC(=O)/C(=C/c3ccc(Cl)c(Cl)c3)[C@H]1C2 | – | – | – | – | – | – | – | Ki [12]: 7440 nM; Ki [13]: 13.4 nM
